Read-outs that look alike come from different tables or passages of the source.
Columns and labels:
[1] = tested on: IL-17A release in mouse splenocytes; experiment: IL-17A release, mouse splenocytes, anti-CD3 + anti-CD28; type: cell-based; conditions: Splenocyte, anti-CD3 + anti-CD28, n = 13, read-out: Cellular activity: Mouse IC50, IL-17A release
Description: Inhibition of RORγ by PCCR-1 was also estimated in a functional assay by measuring the inhibition of Th17 dependent cytokine IL-17A release in human peripheral blood mononuclear cells (PBMCs), mouse splenocytes and canine PBMC stimulated with their respective anti-CD3 and anti-CD28 antibodies.
Splenocytes were prepared from 6–8 week old BALB/c mice and cells were seeded in 96-well plates coated with mouse anti-CD3 mAb (10 µg/mL). Cells were treated with test compounds for 30 min followed by stimulation with mouse anti- CD28 mAb (3 µg/mL) for 72 h at 37 °C in 5% CO2 incubator. The supernatant was used for estimating mouse IL-17 by ELISA.

mPPARγ = experiment: Nuclear receptors: functional assay, mPPARγ agonism; type: cell-based, mouse; design: key: NSE No significant effect; V wk very weak (very low-level agonist activity seen with mPPARγ); conditions: nuclear receptors: functional assays
Excerpt: (§1) Based on the homology of the ligand binding domains, 3 different isoforms of ROR (hRORα, hRORβ and hRORγ) are reported. Small variations in the LBD regions possibly lead to differences in competitive binding between the nuclear receptors of the ROR isoforms (Fig. 1b). Similar to the assessment of RORγ binding assay, TR-FRET binding assays were also used to assess the affinity of PCCR-1 for other ROR isoforms. […] This was reconfirmed in cellular functional assays for the selected isoforms and nuclear receptors using Gal4 DBD with luciferase reporter system from Indigo (PA, USA). […] In addition, both cellular agonist and antagonist effects as well as for enzyme activity were evaluated with a known reference compound for each target, using a radiolabeled method (Eurofins Cerep, France, Table 1).

[2] = tested on: IL-17 from mouse BAL cells; experiment: Ex vivo IL-17 release, cultured BAL cells from cigarette smoke exposed mice; type: cell-based; conditions: BAL cells from CS exposed mice
Description: The effect of PCCR-1 was evaluated ex vivo using BALf cells from an acute cigarette smoke induced animal model. Animals were exposed to cigarette smoke for 7 days and BALf cells were collected and treated with different doses of PCCR-1 under various stimulatory conditions. […] Stimulation by LPS may represent the inflammatory state during a COPD exacerbation, supporting a potential benefit of PCCR-1 in this disease state.
C57BL/6 mice were exposed to as per above mentioned protocol. On 7th day, animals were sacrificed and a tracheal cannula was inserted. Three times via the trachea, 1 mL of plain RPMI medium was instilled and recovered by gentle manual aspiration. The recovered BALf was centrifuged, the cell pellet washed twice and finally re-suspended in 5% FBS- RPMI. Isolated BAL cells were pre-incubated with different concentration of PCCR-1 for 60 min, followed by stimulating with 1 µg/ml soluble mouse anti-CD3 and 3 µg/ml mouse anti-CD28 mAbs and/or 100 ng/ml of LPS and incubated for 24-48 h at 37 °C. The supernatant was used for estimating IL-17 by ELISA.

Alpha 1A = target: T1, Alpha 1A (Homo sapiens, UniProt P35348); experiment: Cerep panel, Alpha 1A (antagonist); type: cell-based; conditions: read-out: IC50 Alpha 1A (antg)
T1 construct: Eurofins Cerep
Excerpt: as §1

[3] = tested on: total leukocytes, neutrophils and macrophages in BAL fluid of cigarette smoke exposed mice; experiment: Acute cigarette smoke induced pulmonary inflammation mice model; type: in vivo, mouse
Excerpt: Cigarette smoke exposure for 7 days caused significant increase in the total cell count in BAL fluid, including leukocytes, neutrophils and macrophages as compared to an air exposed control group.
Male C57BL/6 mice aged 8–10 weeks were obtained from the animal facility of Glenmark Pharmaceuticals Ltd. All animal experiments were approved by IAEC (institutional Animal Ethics Committee) as per the guideline set up by The Committee for the Purpose of Control and Supervision of Experiments on Animals (CPCSEA), India (CPCSEA is a statutory Committee of Department of Animal Husbandry and Dairying (DAHD), Ministry of Fisheries, Animal Husbandry and Dairying (MoFAH&D), India and constituted under the Prevention of Cruelty to Animals (PCA) Act, 1960., India). All animal experiments and procedures were performed in accordance with CPCSEA and IAEC guidelines and regulations (Registration number 231/2000/CPCSEA).In addition to that, all animal experimentation complies with the guidelines of Animal Research: Reporting In Vivo Experiments (ARRIVE). Male C57BL/6 mice were exposed to either room air or cigarette smoke (CS) from 10 cigarettes (Kentucky Research Cigarettes 3R4F) for 50 min, twice daily for 7 days in a whole body box exposure system (SIU24, ProMech Lab Holding AB, Sweden). […] All aspirates of BAL were pooled and total number of cells were determined using a hemocytometer. […]

[4] = tested on: IL-17 release from COPD lung BALf cells; experiment: IL-17 release, BALf cells from COPD patients; type: cell-based; conditions: Homo sapiens; TCR stimulated, n = 10; read-out: IL-17 IC50, COPD patient's sample: BAL
Description: Whole blood and BAL samples from COPD patients were obtained from Multispecialty hospital, Mumbai post approval from ethics committee and informed consent of patients. 30–40 mL Broncho alveolar lavage (BALf) was collected per patient and stored in ice. Blood was collected in heparin vaccutainer as per approved protocol. Both the samples were processed within 2 h of collection. BALF was passed through 100-µm and 40-µm cell strainer to remove debris and mucus, the samples were centrifuged and the cells were re-suspended in RPMI 1640 complete medium. PBMCs from blood were isolated using Histopaque-1077 by density gradient centrifugation. Isolated BAL cells and PBMCs were seeded in 96 well coated with 10 µg/ml anti-CD3 and 2 µg/ml anti-CD2. Cells were further treated with different concentration of test compound for 60 min followed by stimulation with 20 µg/ml anti-CD28 and incubated for 48–72 h. The supernatant was used for estimating IL-17 by ELISA.

T1 sequence (P35348 whole entry): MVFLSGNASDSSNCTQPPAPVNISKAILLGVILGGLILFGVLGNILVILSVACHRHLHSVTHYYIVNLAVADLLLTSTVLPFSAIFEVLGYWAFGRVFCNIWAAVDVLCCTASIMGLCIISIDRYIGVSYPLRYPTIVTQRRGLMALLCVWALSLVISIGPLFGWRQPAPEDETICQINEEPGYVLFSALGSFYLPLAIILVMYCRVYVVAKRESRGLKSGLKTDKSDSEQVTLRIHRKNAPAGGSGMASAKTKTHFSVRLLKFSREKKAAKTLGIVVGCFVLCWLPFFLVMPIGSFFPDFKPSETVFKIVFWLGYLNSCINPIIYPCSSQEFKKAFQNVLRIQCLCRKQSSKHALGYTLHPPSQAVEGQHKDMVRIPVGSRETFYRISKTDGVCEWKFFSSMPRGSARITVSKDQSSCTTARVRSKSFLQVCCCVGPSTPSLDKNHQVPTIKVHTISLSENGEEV

CCn1c(C(C)(C)Oc2ccc(F)cc2F)nc2cc(NC(=O)Cc3ccc(S(=O)(=O)CC)cc3)ccc21 [PCCR-1]
IC50 [1]: 0.766 µM
mPPARγ(agonism) (mPPARγ): V wk
IC50 ([2]; LPS induced, read-out: IL-17 IC50, Mouse BAL cells: LPS): 0.802 µM
IC50 ([2]; anti-CD3 + anti-CD28 induced, read-out: IL-17 IC50, Mouse BAL cells: CD3+CD28): 0.903 µM
IC50 ([2]; basal, read-out: IL-17 IC50, Mouse BAL cells: Basal): 0.873 µM
IC50 (Alpha 1A): 0.19 µM
inhibition of total leukocytes in BAL fluid ([3]; intranasal once a day for 7 days, between 1 µg and 50 µg/animal): dose dependent inhibition
cigarette smoke mediated increase in neutrophil and macrophage counts in BAL fluid ([3]; intranasal, 10, 30, 50 and 100 µg per mouse): significantly obtunded
IC50 [4]: 0.522 µM

Source: publication PMC9130233, “An inhibitor of RORγ for chronic pulmonary obstructive disease treatment” (Scientific Reports, 2022)
